Data: publication PMC2925389, “Pre-Steady-State Kinetic Analysis of Truncated and Full-Length Saccharomyces cerevisiae DNA Polymerase Eta” (Journal of Nucleic Acids, 2010)

What was measured:
full-length yPolη = target: T1, full-length yPolη (Saccharomyces cerevisiae, UniProt Q04049); assay: pre-steady-state single-turnover nucleotide incorporation, rapid chemical quench; assay type: biochemical; settings: 5 mM MgCl2, pH 7.5, 23°C
T1 construct: gene RAD30; full-length, residues 1-632, expressed and purified from yeast
T1 sequence (Q04049 1-632): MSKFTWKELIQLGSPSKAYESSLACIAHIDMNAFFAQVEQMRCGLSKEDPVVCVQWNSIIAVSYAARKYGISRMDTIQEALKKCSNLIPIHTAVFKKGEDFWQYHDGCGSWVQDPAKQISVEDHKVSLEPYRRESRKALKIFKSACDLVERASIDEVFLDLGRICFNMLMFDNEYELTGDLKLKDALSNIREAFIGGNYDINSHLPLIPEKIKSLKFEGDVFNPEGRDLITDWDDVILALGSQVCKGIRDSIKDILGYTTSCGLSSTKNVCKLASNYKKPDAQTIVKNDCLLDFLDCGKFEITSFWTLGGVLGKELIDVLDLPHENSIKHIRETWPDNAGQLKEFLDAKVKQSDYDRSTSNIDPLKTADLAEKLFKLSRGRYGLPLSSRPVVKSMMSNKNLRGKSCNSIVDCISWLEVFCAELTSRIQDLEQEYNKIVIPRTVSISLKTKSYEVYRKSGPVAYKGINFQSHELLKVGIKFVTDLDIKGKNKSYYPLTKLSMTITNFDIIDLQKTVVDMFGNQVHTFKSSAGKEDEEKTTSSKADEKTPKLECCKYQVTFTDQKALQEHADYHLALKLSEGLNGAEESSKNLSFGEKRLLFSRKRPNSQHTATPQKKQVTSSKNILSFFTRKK
Text: pre-steady-state single-turnover nucleotide incorporation, rapid chemical quench on full-length yPolη

truncated yPolη = target: T2, truncated yPolη (Saccharomyces cerevisiae, UniProt Q04049); assay: as above; assay type: biochemical; settings: 5 mM MgCl2, pH 7.5, 23°C
T2 construct: gene RAD30; catalytic core (polymerase domain) 1-513, lacks C-terminal residues 514-632; N-terminal tag MGSSH6SSGLVPRGSH
T2 sequence (Q04049 1-513): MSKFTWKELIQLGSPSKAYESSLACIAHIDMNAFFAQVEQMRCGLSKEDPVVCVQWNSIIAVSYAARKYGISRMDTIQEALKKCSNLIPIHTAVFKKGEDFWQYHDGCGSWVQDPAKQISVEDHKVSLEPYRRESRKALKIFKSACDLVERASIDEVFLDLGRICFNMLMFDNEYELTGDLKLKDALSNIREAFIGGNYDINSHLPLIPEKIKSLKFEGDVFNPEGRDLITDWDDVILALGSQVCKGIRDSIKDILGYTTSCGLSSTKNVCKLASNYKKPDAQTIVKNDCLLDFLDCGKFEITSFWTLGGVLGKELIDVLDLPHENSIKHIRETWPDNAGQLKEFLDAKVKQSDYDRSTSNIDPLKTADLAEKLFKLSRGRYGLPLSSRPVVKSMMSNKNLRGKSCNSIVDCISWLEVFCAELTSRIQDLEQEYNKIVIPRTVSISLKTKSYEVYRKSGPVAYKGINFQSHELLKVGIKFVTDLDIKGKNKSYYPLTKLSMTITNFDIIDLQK

[1] = correct dNTP opposite template dA (D-1 21/41-mer DNA)
[2] = mismatched dNTP opposite template dA (D-1 21/41-mer DNA)

Cc1cn([C@H]2C[C@H](O)[C@@H](COP(=O)(O)OP(=O)(O)OP(=O)(O)O)O2)c(=O)[nH]c1=O [dTTP]
Kd (full-length yPolη; [1]): 40 ± 10 µM | Kd (truncated yPolη; [1]): 15 ± 2 µM

Nc1ccn([C@H]2C[C@H](O)[C@@H](COP(=O)(O)OP(=O)(O)OP(=O)(O)O)O2)c(=O)n1 [dCTP]
Kd (full-length yPolη; [2]): 70 ± 10 µM | Kd (truncated yPolη; correct dNTP opposite template dG (D-6 21/41-mer DNA)): 11.2 ± 0.8 µM

Nc1nc2c(ncn2[C@H]2C[C@H](O)[C@@H](COP(=O)(O)OP(=O)(O)OP(=O)(O)O)O2)c(=O)[nH]1 [dGTP]
Kd (full-length yPolη; [2]): 170 ± 40 µM | Kd (truncated yPolη; correct dNTP opposite template dC (D-8 21/41-mer DNA)): 6.8 ± 0.4 µM

Nc1ncnc2c1ncn2[C@H]1C[C@H](O)[C@@H](COP(=O)(O)OP(=O)(O)OP(=O)(O)O)O1 [dATP]
Kd (full-length yPolη; [2]): 156 ± 7 µM | Kd (truncated yPolη; correct dNTP opposite template dT (D-7 21/41-mer DNA)): 17 ± 3 µM
